# Experiments:
# Type in all cases: functional
# Mus musculus [1] = test: Average weight change in mice bearing sarcoma 180 ascites cells at dose 5 mg/kg
# Mus musculus [2] = test: Ratio of the survival time of treated to control animals at dose 2.5 mg/kg
# Mus musculus [3] = test: Average weight change in mice bearing sarcoma 180 ascites cells at dose 2.5 mg/kg
# Mus musculus [4] = test: Average weight change in mice bearing sarcoma 180 ascites cells at dose 10 mg/kg
# Mus musculus [5] = test: Average weight change in mice bearing sarcoma 180 ascites cells at dose 20 mg/kg
# Mus musculus [6] = test: Ratio of the survival time of treated to control animals at dose 10 mg/kg
# Mus musculus [7] = test: Ratio of the survival time of treated to control animals at dose 5 mg/kg
# Mus musculus [8] = test: Ratio of the survival time of treated to control animals at dose 20 mg/kg
SMILES,Average weight change (Mus musculus [1]),T/C (Mus musculus [2]),Average weight change (Mus musculus [3]),Average weight change (Mus musculus [4]),Average weight change (Mus musculus [5]),T/C (Mus musculus [6]),T/C (Mus musculus [7]),T/C (Mus musculus [8])
O=C1C=C(CBr)C(=O)c2ccccc21,-5.4%,1.61,1.7%,-7.7%,-9.1%,1.49,1.73,1.69
O=C1C=CC(=O)c2cc(CCl)ccc21,-10.4%,–,–,-13.5%,–,1.05,1.38,0.22
O=C1C=CC(=O)c2cc(CO)ccc21,–,1.16,-9.1%,–,–,0.17,–,–
CS(=O)(=O)OCc1ccc2c(c1)C(=O)C=CC2=O,-6.3%,–,–,-11.8%,-13.3%,1.43,1.71,1.44
O=C(NCCCl)OCC1=CC(=O)c2ccccc2C1=O,-4.6%,–,–,-11.4%,-13.8%,1.71,2.08,1.96
O=C1C=CC(=O)c2cc(CBr)ccc21,-7.8%,2.07,-4.2%,-11.3%,-12.5%,1.42,1.46,0.57
O=C(NCCCl)OCc1ccc2c(c1)C(=O)C=CC2=O,-9%,–,–,-11.7%,-17.3%,1.63,1.47,0.5
Cc1ccc(S(=O)(=O)OCC2=CC(=O)c3ccccc3C2=O)cc1,2.8%,–,–,-4.4%,-7.4%,2.16,1.77,1.62
CCOCc1ccc2c(c1)C(=O)C=CC2=O,-6.4%,–,–,-10.3%,–,0.97,1.32,0.42
Cc1ccc(S(=O)(=O)OCc2ccc3c(c2)C(=O)C=CC3=O)cc1,-3.8%,–,–,-11.6%,-15.2%,1.82,1.44,1.64
COCC1=CC(=O)c2ccccc2C1=O,17%,–,–,1.6%,-19%,1.38,0.98,1.07
O=C1C=C(CCl)C(=O)c2ccccc21,-2%,–,–,-9.8%,-16.4%,1.47,1.4,1.3
CC(=O)OCC1=CC(=O)c2ccccc2C1=O,-9.3%,–,–,-14.4%,-10.2%,1.62,1.66,0.7
CNC(=O)OCC1=CC(=O)c2ccccc2C1=O,-12.6%,–,–,-10.5%,-11.4%,1.51,1.39,0.51
Cc1ccc2c(c1)C(=O)C=CC2=O,-11.5%,–,–,-11.1%,–,0.38,1.09,0.26
CC(=O)OCc1ccc2c(c1)C(=O)C=CC2=O,-2.9%,–,–,–,-7.4%,0.93,1.35,0.48
O=C1C=C(CO)C(=O)c2ccccc21,-6.4%,–,–,-15.2%,–,0.45,1.16,0.22
CS(=O)(=O)OCC1=CC(=O)c2ccccc2C1=O,-6.3%,–,–,-8.3%,-8.8%,1.57,1.92,1.41
CNC(=O)OCc1ccc2c(c1)C(=O)C=CC2=O,-7.6%,–,–,-7.8%,-10.8%,1.61,1.71,0.81
CC1=CC(=O)c2ccccc2C1=O [MENADIONE],18.7%,–,–,17.3%,-2%,1.03,0.85,1.34
